The source made the active and inactive calls. The calls are words filed in the database; no cut-off is given here.
How the values were obtained:
[1] = target: Poly [ADP-ribose] polymerase 1 (Homo sapiens) (UniProt P09874); experiment: Induction of PARP1 degradation in triple-negative human MDA-MB-231 cells assessed as fold change in PARP1 protein expression at 10 uM incubated for 48 hrs by Western blot analysis relative to control; type: cell-based
MDA-MB-231 [2] = experiment: Cytotoxicity against triple-negative human MDA-MB-231 cells assessed as reduction in cell viability measured after 48 hrs by CCK8 assay; type: functional, cell-based; details: MDA-MB-231, 48 h
[3] = target: Poly [ADP-ribose] polymerase 1 (Homo sapiens) (UniProt P09874); experiment: Induction of PARP1 degradation in triple negative human MDA-MB-468 cells assessed as fold change in PARP1 protein expression at 5 uM incubated for 48 hrs by Western blot analysis relative to control; type: cell-based
[4] = target: Poly [ADP-ribose] polymerase 1 (Homo sapiens) (UniProt P09874); experiment: Induction of PARP1 degradation in human HCC1937 cells harboring BRCA mutation assessed as fold change in PARP1 protein expression at 5 uM incubated for 48 hrs by Western blot analysis relative to control; type: cell-based
[5] = target: Poly [ADP-ribose] polymerase 1 (Homo sapiens) (UniProt P09874); experiment: Induction of PARP1 degradation in human MDA-MB-231 cells at 5 uM pretreated for 2 hrs with proteasome inhibitor, bortezomib for 2 hrs followed by incubation with compound for 48 hrs by immunoblotting analysis; type: cell-based
[6] = target: Poly [ADP-ribose] polymerase 1 (Homo sapiens) (UniProt P09874); experiment: Induction of PARP1 degradation in human MDA-MB-231 cells at 5 uM incubated for 48 hrs in presence 5 to 10 uM PARP1 inhibitor olaparib by Western blot analysis; type: cell-based
MDA-MB-231 [7] = experiment: Induction of apoptosis in human MDA-MB-231 cells assessed as increase in Bax protein expression at 5 uM incubated for 24 to 48 hrs by Western blot analysis; type: functional, cell-based; details: time 24-48 hrs
MDA-MB-231 [8] = experiment: Induction of apoptosis in human MDA-MB-231 cells assessed as increase in cytochrome C protein expression at 5 uM incubated for 24 to 48 hrs by Western blot analysis; type: functional, cell-based; details: time 24-48 hrs
MDA-MB-231 [9] = experiment: Induction of apoptosis in human MDA-MB-231 cells assessed as decrease in Bcl2 protein expression at 5 uM incubated for 24 to 48 hrs by Western blot analysis; type: functional, cell-based; details: time 24-48 hrs
MDA-MB-231 [10] = experiment: Cytotoxicity against human MDA-MB-231 cells assessed as reduction in cell growth at 5 uM measured after 96 hrs by CCK8 assay relative to control; type: functional
MDA-MB-468 [11] = experiment: Induction of apoptosis in human MDA-MB-468 cells assessed as increase in p21 protein expression at 5 uM incubated for 48 hrs by Western blot analysis; type: functional, cell-based
MDA-MB-468 [12] = experiment: Induction of apoptosis in human MDA-MB-468 cells assessed as decrease in Bcl2 protein expression at 5 uM incubated for 48 hrs by Western blot analysis; type: functional, cell-based
MDA-MB-231 [13] = experiment: Induction of apoptosis in human MDA-MB-231 cells assessed as downregulation in survivin gene expression at 5 to 10 uM incubated for 24 to 48 hrs by RT-PCR analysis; type: functional, cell-based; details: dose 5-10 µM, time 24-48 hrs
MDA-MB-468 [14] = experiment: Induction of endoplasmic reticulum stress in human MDA-MB-468 cells assessed as increase in CHOP protein expression at 5 uM incubated for 48 hrs by Western blot analysis; type: functional, cell-based
MDA-MB-468 [15] = experiment: Induction of autophagy in human MDA-MB-468 cells assessed as upregulation in LC3B protein expression at 5 uM measured after 48 hrs by Western blot analysis; type: functional, cell-based
MDA-MB-231 [16] = experiment: Induction of autophagy in human MDA-MB-231 cells assessed as upregulation in LC3B protein expression at 5 uM measured after 48 to 72 hrs by Western blot analysis; type: functional, cell-based; details: time 48-72 hrs
MDA-MB-231 [17] = experiment: Induction of autophagy in human MDA-MB-231 cells assessed as upregulation in LC3B gene expression at 5 to 10 uM measured after 24 to 48 hrs by RT-PCR analysis; type: functional, cell-based; details: dose 5-10 µM, time 24-48 hrs
[18] = target: Poly [ADP-ribose] polymerase 1 (Homo sapiens) (UniProt P09874); experiment: Induction of PARP1 degradation in human MDA-MB-231 cells assessed as fold change in PARP1 protein expression at 5 uM incubated for 48 hrs in presence of caspase I inhibitor, Ac-YVAD-cmk by Western blot analysis relative to control; type: cell-based
[19] = target: Poly [ADP-ribose] polymerase 1 (Homo sapiens) (UniProt P09874); experiment: Induction of PARP1 degradation in human MDA-MB-468 cells assessed as fold change in PARP1 protein expression at 5 uM incubated for 48 hrs in presence of pan-caspase inhibitor, Z-VAD-FMK by Western blot analysis; type: cell-based
[20] = target: Poly [ADP-ribose] polymerase 1 (Homo sapiens) (UniProt P09874); experiment: Induction of PARP1 degradation in triple-negative human MDA-MB-231 cells assessed as fold change in PARP1 protein expression at 0.5 uM incubated for 48 hrs by Western blot analysis relative to control; type: cell-based
[21] = target: Poly [ADP-ribose] polymerase 1 (Homo sapiens) (UniProt P09874); experiment: Induction of PARP1 degradation in triple-negative human MDA-MB-231 cells assessed as fold change in PARP1 protein expression at 2.5 uM incubated for 24 hrs by Western blot analysis relative to control; type: cell-based
[22] = target: Poly [ADP-ribose] polymerase 1 (Homo sapiens) (UniProt P09874); experiment: Induction of PARP1 degradation in triple-negative human MDA-MB-231 cells assessed as fold change in PARP1 protein expression at 5 uM incubated for 24 hrs by Western blot analysis relative to control; type: cell-based
[23] = target: Poly [ADP-ribose] polymerase 1 (Homo sapiens) (UniProt P09874); experiment: Induction of PARP1 degradation in human HCC1937 cells harboring BRCA mutation assessed as fold change in PARP1 protein expression at 5 uM incubated for 24 hrs by Western blot analysis relative to control; type: cell-based
[24] = target: Poly [ADP-ribose] polymerase 1 (Homo sapiens) (UniProt P09874); experiment: Induction of PARP1 degradation in human MDA-MB-231 cells at 5 uM incubated for 48 hrs in presence of proteasome inhibitor, carfilzomib by immunoblotting analysis; type: cell-based
MDA-MB-231 [25] = experiment: Induction of autophagy in human MDA-MB-231 cells assessed as upregulation in LC3A gene expression at 5 to 10 uM measured after 24 to 48 hrs by RT-PCR analysis; type: functional, cell-based; details: dose 5-10 µM, time 24-48 hrs
MDA-MB-231 [26] = experiment: Induction of autophagy in human MDA-MB-231 cells assessed as autophagosome, large double membrane-bound vesicles enclosing cytoplasmic components formation at 5 uM incubated for 24 to 48 hrs by transmission electron microscopy; type: functional, cell-based; details: time 24-48 hrs
MDA-MB-231 [27] = experiment: Induction of apoptosis in human MDA-MB-231 cells assessed as apoptotic body formation at 5 uM incubated for 24 to 48 hrs by transmission electron microscopy; type: functional, cell-based; details: time 24-48 hrs
[28] = target: Poly [ADP-ribose] polymerase 1 (Homo sapiens) (UniProt P09874); experiment: Induction of PARP1 degradation in human MDA-MB-468 cells assessed as fold change in PARP1 protein expression at 5 uM pretreated for 2 hrs with pan-caspase inhibitor, Z-VAD-FMK followed by incubation with compound for 48 hrs by Western blot analysis relative to control; type: cell-based

Sequence of Poly [ADP-ribose] polymerase 1 (Homo sapiens) (P09874 whole entry): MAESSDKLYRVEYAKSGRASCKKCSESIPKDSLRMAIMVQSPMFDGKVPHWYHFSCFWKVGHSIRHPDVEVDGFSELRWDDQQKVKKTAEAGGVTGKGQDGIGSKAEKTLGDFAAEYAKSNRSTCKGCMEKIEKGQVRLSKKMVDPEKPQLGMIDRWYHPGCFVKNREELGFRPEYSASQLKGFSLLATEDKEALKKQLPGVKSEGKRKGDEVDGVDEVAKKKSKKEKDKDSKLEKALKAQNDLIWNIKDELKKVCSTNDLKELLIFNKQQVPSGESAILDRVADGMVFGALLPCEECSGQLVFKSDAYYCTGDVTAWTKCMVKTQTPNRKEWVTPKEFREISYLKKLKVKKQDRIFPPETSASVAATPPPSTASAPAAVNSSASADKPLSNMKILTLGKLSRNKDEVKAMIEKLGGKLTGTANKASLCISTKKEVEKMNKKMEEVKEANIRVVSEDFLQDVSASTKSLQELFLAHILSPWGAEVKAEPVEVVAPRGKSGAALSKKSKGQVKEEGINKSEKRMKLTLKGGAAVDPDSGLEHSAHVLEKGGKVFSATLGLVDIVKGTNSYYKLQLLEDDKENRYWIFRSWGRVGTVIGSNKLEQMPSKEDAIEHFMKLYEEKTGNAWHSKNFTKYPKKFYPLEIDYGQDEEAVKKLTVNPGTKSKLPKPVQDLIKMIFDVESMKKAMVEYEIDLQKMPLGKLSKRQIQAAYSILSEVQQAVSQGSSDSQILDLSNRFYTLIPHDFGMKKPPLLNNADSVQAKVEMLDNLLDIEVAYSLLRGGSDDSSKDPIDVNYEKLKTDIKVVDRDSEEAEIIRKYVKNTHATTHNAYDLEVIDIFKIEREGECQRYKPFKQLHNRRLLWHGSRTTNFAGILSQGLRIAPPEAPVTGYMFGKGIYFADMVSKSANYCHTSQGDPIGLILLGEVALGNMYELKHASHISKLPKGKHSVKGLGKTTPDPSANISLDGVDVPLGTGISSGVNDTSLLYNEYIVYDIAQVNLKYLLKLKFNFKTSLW

fold change (FC) [1]: 0.1 | fold change (FC) [3]: 0.3 | fold change (FC) [4]: 0 | Activity [5]: inactive | Activity [6]: inactive | fold change (FC) [18]: 0.3 | fold change (FC) [19]: 0.4 | fold change (FC) [20]: 0.6 | fold change (FC) [21]: 0.8 | fold change (FC) [22]: 0.8 | fold change (FC) [23]: 0.3 | Activity [24]: inactive | fold change (FC) [28]: 0.4
Structure (SMILES): O=C(CC1c2ccccc2-c2ccccc21)N1CCN(C(=O)c2cc(Cc3n[nH]c(=O)c4ccccc34)ccc2F)CC1
IC50 (MDA-MB-231 [2]): 10.6 µM | Activity (MDA-MB-231 [7]): Active | Activity (MDA-MB-231 [8]): Active | Activity (MDA-MB-231 [9]): Active | inhibition at 5 µM (MDA-MB-231 [10]): 80% | Activity (MDA-MB-468 [11]): Active | Activity (MDA-MB-468 [12]): Active | Activity (MDA-MB-231 [13]): Active | Activity (MDA-MB-468 [14]): Active | Activity (MDA-MB-468 [15]): Active | Activity (MDA-MB-231 [16]): Active | Activity (MDA-MB-231 [17]): Active | Activity (MDA-MB-231 [25]): Active | Activity (MDA-MB-231 [26]): Active | Activity (MDA-MB-231 [27]): Active

— ChEMBL document CHEMBL4765403, “Augmentation of the antitumor effects of PARP inhibitors in triple-negative breast cancer via degradation by hydrophobic tagging modulation” (Eur J Med Chem, 2020)
